Values of other authors as cited in patent publication US7847120B2, “Compositions of allosteric hemoglobin modifiers and methods of making the same” (Virginia Commonwealth University Intellectual Property …, priority 2004, dated 2010).

Tests used:
[1] = test system: EMT6 mouse mammary tumors; details: efaproxiral plus oxygen breathing, Rockwell and Kelley 1998
[2] = test system: tissue oxygenation; details: in vivo
[3] = test system: mouse fibrosarcoma tumor; details: combination of efaproxiral and radiation relative to radiation alone

In the case of `Cc1cc(C)cc(NC(=O)Cc2ccc(OC(C)(C)C(=O)O)cc2)c1` [efaproxiral, 2-[4-((((3,5-dimethylphenyl)amino)carbonyl)methyl)phenoxy]-2-methyl propionic acid], the “effect of radiation in tumors” value ([1]; EMT6 mouse mammary tumors) is given as “Enhancement of the effect of radiation was observed”, the “radiation effects in normal tissues” value ([1]; normal tissues) is given as “absence of enhanced radiation effects” and the tissue oxygenation [2] is given as “enhance tissue oxygenation in vivo”. For the same molecule, the tumor growth [3] was “reduced”.
